Measured values from article PMC6601628 (Science (New York, N.Y.), 2019).

Key:
eIF2B(βγδε)2 octamer [1] = molecular target: eIF2B(βγδε)2 octamer (Homo sapiens, UniProt P49770+Q9UI10); experiment: GEF activity, loading of fluorescent GDP onto eIF2; assay type: biochemical; settings: activator; stabilises assembly of two tetramers; substrate eIF2
eIF2B(βγδε)2 octamer [2] = molecular target: eIF2B(βγδε)2 octamer (Homo sapiens, UniProt P49770+Q9UI10, P49770:N132D); experiment: GEF activity, loading of fluorescent GDP onto eIF2; assay type: biochemical; settings: activator; stabilises assembly of two tetramers; substrate eIF2
eIF2B(βγδε)2 octamer (Homo sapiens, UniProt P49770+Q9UI10, P49770:N132D), sequence (P49770 whole entry N132D): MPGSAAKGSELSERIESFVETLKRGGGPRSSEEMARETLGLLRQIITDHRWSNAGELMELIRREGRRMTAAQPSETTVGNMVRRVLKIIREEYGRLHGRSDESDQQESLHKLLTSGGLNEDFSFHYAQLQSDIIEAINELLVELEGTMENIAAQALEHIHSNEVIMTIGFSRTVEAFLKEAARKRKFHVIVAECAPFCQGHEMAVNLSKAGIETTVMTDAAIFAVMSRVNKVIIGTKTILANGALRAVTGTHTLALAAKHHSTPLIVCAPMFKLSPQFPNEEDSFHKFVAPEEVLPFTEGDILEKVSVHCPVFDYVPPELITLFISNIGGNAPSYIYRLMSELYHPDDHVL
eIF2B(βγδε)2 octamer (Homo sapiens, UniProt P49770+Q9UI10, P49770:N132D), sequence (Q9UI10 whole entry): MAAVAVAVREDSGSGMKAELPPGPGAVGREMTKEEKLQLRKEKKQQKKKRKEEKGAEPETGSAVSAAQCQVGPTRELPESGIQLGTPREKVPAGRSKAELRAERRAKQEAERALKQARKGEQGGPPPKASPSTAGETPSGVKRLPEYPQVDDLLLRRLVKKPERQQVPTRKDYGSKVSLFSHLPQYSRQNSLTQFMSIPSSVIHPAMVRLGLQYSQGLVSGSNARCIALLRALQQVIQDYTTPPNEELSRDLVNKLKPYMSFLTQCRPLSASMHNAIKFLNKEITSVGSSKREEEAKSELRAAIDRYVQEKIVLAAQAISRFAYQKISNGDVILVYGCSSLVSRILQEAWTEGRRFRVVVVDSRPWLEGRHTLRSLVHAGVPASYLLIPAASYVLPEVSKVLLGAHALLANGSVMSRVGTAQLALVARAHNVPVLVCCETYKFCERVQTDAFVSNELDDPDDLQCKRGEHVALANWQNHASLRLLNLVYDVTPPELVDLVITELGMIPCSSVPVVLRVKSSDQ
eIF2B(βγδε)2 octamer (Homo sapiens, UniProt P49770+Q9UI10, P49770:N132D), sequence (Q9NR50 whole entry partner): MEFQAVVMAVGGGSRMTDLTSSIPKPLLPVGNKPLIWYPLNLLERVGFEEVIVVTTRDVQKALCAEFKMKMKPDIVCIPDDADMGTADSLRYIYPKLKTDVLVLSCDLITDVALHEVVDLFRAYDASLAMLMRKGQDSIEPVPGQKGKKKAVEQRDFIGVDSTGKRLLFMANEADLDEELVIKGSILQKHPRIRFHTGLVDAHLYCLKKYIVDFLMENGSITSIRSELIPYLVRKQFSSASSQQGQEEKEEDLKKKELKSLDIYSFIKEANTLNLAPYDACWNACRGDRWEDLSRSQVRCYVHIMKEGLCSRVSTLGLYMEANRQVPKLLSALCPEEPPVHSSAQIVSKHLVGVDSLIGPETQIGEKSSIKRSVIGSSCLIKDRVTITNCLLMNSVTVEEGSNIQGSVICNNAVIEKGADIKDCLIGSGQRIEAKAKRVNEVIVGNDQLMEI
eIF2B(βγδε)2 octamer (Homo sapiens, UniProt P49770+Q9UI10, P49770:N132D), sequence (Q13144 2-721 partner): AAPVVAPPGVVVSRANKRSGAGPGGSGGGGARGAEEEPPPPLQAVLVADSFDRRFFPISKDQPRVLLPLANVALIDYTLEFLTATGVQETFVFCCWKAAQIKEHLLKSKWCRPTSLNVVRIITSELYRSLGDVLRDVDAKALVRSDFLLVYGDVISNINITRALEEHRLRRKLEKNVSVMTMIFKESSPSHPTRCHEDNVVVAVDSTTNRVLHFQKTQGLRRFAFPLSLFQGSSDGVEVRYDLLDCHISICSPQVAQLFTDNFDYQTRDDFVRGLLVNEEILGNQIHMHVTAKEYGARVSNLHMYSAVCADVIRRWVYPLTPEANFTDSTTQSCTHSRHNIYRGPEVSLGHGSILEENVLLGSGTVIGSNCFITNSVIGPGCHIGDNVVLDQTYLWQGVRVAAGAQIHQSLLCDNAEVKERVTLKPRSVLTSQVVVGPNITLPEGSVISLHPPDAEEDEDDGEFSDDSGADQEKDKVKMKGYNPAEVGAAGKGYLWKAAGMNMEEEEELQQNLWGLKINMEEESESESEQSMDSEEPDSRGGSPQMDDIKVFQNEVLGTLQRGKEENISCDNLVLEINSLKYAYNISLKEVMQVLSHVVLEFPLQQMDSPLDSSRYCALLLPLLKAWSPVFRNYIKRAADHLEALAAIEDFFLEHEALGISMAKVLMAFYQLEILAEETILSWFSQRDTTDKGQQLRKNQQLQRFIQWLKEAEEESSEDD

eIF2B(βγδε)2 octamer (Homo sapiens, UniProt P49770+Q9UI10), sequence (P49770 whole entry): as the sequence (P49770 whole entry N132D) above, with D132N counted along it
eIF2B(βγδε)2 octamer (Homo sapiens, UniProt P49770+Q9UI10), sequence (Q9UI10 whole entry): as the sequence (Q9UI10 whole entry) above
eIF2B(βγδε)2 octamer (Homo sapiens, UniProt P49770+Q9UI10), sequence (Q9NR50 whole entry partner): as the sequence (Q9NR50 whole entry partner) above
eIF2B(βγδε)2 octamer (Homo sapiens, UniProt P49770+Q9UI10), sequence (Q13144 2-721 partner): as the sequence (Q13144 2-721 partner) above

## O=C(COc1ccc(Cl)cc1)N[C@H]1CC[C@H](NC(=O)COc2ccc(Cl)cc2)CC1 [ISRIB]
eIF2B(βγδε)2 octamer [1]
  GEF activity, loading of fluorescent GDP onto eIF2: GEF activity of the ISRIB-stabilized eIF2B octamer
eIF2B(βγδε)2 octamer [2]
  GEF activity, loading of fluorescent GDP onto eIF2: eIF2B-βN132D tetramers and ISRIB-stabilized octamers
